According to PMC5308240, “A Novel Toxin from Haplopelma lividum Selectively Inhibits the NaV1.8 Channel and Possesses Potent Analgesic Efficacy” (Toxins, 2016):
“And” between values parts separate entries of the source, which are not always exact repeats. Equal entries are not always repeated.

Experiments:
[1] = test system: mice; test: Tail-flicking test; settings: mouse, in vivo, ip
Experimental: Mice with pain threshold of 4–6 s were selected for the tail-flicking test. […] A photothermal pain detector (YLS-12A, Jinan, Shandong, China) was used to measure the pain threshold of mice subjected to intense heat and the light beam of the detector was focused on the middle of mouse tail. All of the animals were intraperitoneally injected with saline containing different concentrations of samples and control group received the same volume of saline. Tail withdrawal latency was measured as the time taken to withdraw the tail from the light beam.
(§1) The results are expressed as the mean ± standard error of the mean (SEM). Statistical significance was calculated using one- or two-way analysis of variance followed by the Student-Newman-Keuls and Bonferroni’s post hoc tests. Significance was defined as p < 0.05.

[2] = test system: mice; test: Hot plate test; settings: mouse, in vivo
Experimental: A hot plate apparatus (model HZ66-ZH-YLS-6B, Shanghai, China), maintained at 55 ± 1 °C, was used to test the pain in response to a thermal stimulus. Mice in the control condition showing initial nociceptive responses between 5 and 10 s were selected for the experiment. The latency to the sign of hind paw licking or jumping to avoid heat nociception was taken as the index of the nociceptive threshold. […] A group of mice treated with morphine dissolved in physiological saline was used as a positive control.
as §1

[3] = test system: mice; test: Formalin-induced paw licking; settings: mouse, in vivo, ip
Experimental: A formalin test was performed according to the method described by Owoyele et al.. Mice were intraperitoneally (i.p.) injected with test samples dissolved in 100 μL of saline and positive control animals were intraperitoneally injected with morphine dissolved in saline. The control group received the same volume of saline. Animals were injected with 20 μL of 5% formalin at the plantar surface of right hind paw after intraperitoneally injected with test samples. They were then placed into open polyvinyl cages (20 cm × 40 cm × 15 cm) individually. The time spent for licking the injected paw by each mouse was recorded by a digital video camera (early phase or neurogenic pain, 0–15 min post-injection and late phase or inflammatory pain, 15–30 min post-injection).
as §1

Question: With `CN1CC[C@]23c4c5ccc(O)c4O[C@H]2[C@@H](O)C=C[C@H]3[C@H]1C5` [morphine] as the compound, how does the tail withdrawal latency [1] read?
Answer: 6.8 s and 8.9 s and 11.3 s

Question: What about the hot plate latency [2] of the same compound?
Answer: 12.5 s and 14.3 s and 18.6 s

Question: What about the “paw licking time, early phase” value [3] of the same compound?
Answer: 94 s and 71 s and 60 s

Question: And the “paw licking time, late phase” value [3]?
Answer: 421 s and 275 s and 211 s
